Source: PubChem BioAssay (NCI)
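Five concentrations, 48 hours, 96-well plates. GI50 marks 50% less growth. The concentration for full growth arrest is given as TGI.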

What was measured:
Assay in all cases: DTP human tumour cell line panel, 48 h
RXF 393 renal = system: RXF 393 renal
KM12 colon = system: KM12 colon
PC-3 prostate = system: PC-3 prostate
DU-145 prostate = system: DU-145 prostate
SK-MEL-28 melanoma = system: SK-MEL-28 melanoma
UACC-62 melanoma = system: UACC-62 melanoma
CCRF-CEM leukemia = system: CCRF-CEM leukemia
NCI-H23 lung = system: NCI-H23 lung
HOP-92 NSCLC = system: HOP-92 NSCLC
U251 CNS = system: U251 CNS
COLO 205 colon = system: COLO 205 colon
HL-60(TB) leukemia = system: HL-60(TB) leukemia
OVCAR-8 ovarian = system: OVCAR-8 ovarian
HCC-2998 colon = system: HCC-2998 colon
MDA-MB-435 = system: MDA-MB-435
HS 578T breast = system: HS 578T breast
HCT-15 colon = system: HCT-15 colon
OVCAR-5 ovarian = system: OVCAR-5 ovarian
SK-MEL-5 melanoma = system: SK-MEL-5 melanoma
SF-268 CNS = system: SF-268 CNS
SNB-75 CNS = system: SNB-75 CNS
SF-295 CNS = system: SF-295 CNS
MALME-3M melanoma = system: MALME-3M melanoma
UO-31 renal = system: UO-31 renal
SN12C renal = system: SN12C renal
NCI-H522 lung = system: NCI-H522 lung
K-562 leukemia = system: K-562 leukemia
HOP-62 NSCLC = system: HOP-62 NSCLC
OVCAR-4 ovarian = system: OVCAR-4 ovarian
SW-620 colon = system: SW-620 colon

Compound: CCOc1ccc(-c2cc(-c3cc(C(C)C)c(O)cc3C)nn2-c2ccc(S(N)(=O)=O)cc2)cc1
- GI50 (RXF 393 renal): 4.45 µM
- TGI (RXF 393 renal): 17.2 µM
- GI50 (KM12 colon): 3.47 µM
- TGI (KM12 colon): 13.4 µM
- GI50 (PC-3 prostate): 5.47 µM
- TGI (PC-3 prostate): 19.6 µM
- GI50 (DU-145 prostate): 7.07 µM
- TGI (DU-145 prostate): 19.9 µM
- GI50 (SK-MEL-28 melanoma): 11.7 µM
- TGI (SK-MEL-28 melanoma): 24 µM
- GI50 (UACC-62 melanoma): 7.25 µM
- TGI (UACC-62 melanoma): 20.4 µM
- GI50 (CCRF-CEM leukemia): 2.86 µM
- TGI (CCRF-CEM leukemia): 13.8 µM
- GI50 (NCI-H23 lung): 6.86 µM
- TGI (NCI-H23 lung): 20.5 µM
- GI50 (HOP-92 NSCLC): 2.82 µM
- TGI (HOP-92 NSCLC): 13 µM
- GI50 (U251 CNS): 5.29 µM
- TGI (U251 CNS): 18.6 µM
- GI50 (COLO 205 colon): 17.1 µM
- TGI (COLO 205 colon): 31.7 µM
- GI50 (HL-60(TB) leukemia): 4.81 µM
- TGI (HL-60(TB) leukemia): 37.3 µM
- GI50 (OVCAR-8 ovarian): 7.24 µM
- TGI (OVCAR-8 ovarian): 21.6 µM
- GI50 (HCC-2998 colon): 3.87 µM
- TGI (HCC-2998 colon): 12.7 µM
- GI50 (MDA-MB-435): 1.91 µM
- TGI (MDA-MB-435): 4.44 µM
- GI50 (HS 578T breast): 5.8 µM
- TGI (HS 578T breast): 25.9 µM
- GI50 (HCT-15 colon): 3.61 µM
- TGI (HCT-15 colon): 14.4 µM
- GI50 (OVCAR-5 ovarian): 15.7 µM
- TGI (OVCAR-5 ovarian): 29.2 µM
- GI50 (SK-MEL-5 melanoma): 5.3 µM
- TGI (SK-MEL-5 melanoma): 17.8 µM
- GI50 (SF-268 CNS): 7.22 µM
- TGI (SF-268 CNS): 21.4 µM
- GI50 (SNB-75 CNS): 2.48 µM
- TGI (SNB-75 CNS): 13 µM
- GI50 (SF-295 CNS): 9.37 µM
- TGI (SF-295 CNS): 21.3 µM
- GI50 (MALME-3M melanoma): 11 µM
- TGI (MALME-3M melanoma): 23.4 µM
- GI50 (UO-31 renal): 5.46 µM
- TGI (UO-31 renal): 18.3 µM
- GI50 (SN12C renal): 6.66 µM
- TGI (SN12C renal): 20.1 µM
- GI50 (NCI-H522 lung): 2.75 µM
- TGI (NCI-H522 lung): 11 µM
- GI50 (K-562 leukemia): 3.38 µM
- TGI (K-562 leukemia): > 100 µM
- GI50 (HOP-62 NSCLC): 10.4 µM
- TGI (HOP-62 NSCLC): 23.4 µM
- GI50 (OVCAR-4 ovarian): 7.29 µM
- TGI (OVCAR-4 ovarian): 21 µM
- GI50 (SW-620 colon): 5.94 µM
